# Reference: patent publication US4012576A, “Antibiotic complex Bu 2183” (priority 1975, dated 1977)
# Entries after “also recorded” stand apart in the source; their conditions may differ. Like-named read-outs stand apart in the source and are kept apart here.
# Columns and labels:
# E. coli A20107 = test: MIC, two-fold agar dilution on Nutrient Agar; assay type: cell-based; settings: Escherichia coli
# Method: (§1) The minimum inhibitory concentrations (MIC) of Bu-2183 A and B were determined against a wide variety of bacteria by the two-fold agar dilution method on Nutrient Agar plates. The inocula-replicating device of Steers et al. was used. Inoculum size was adjusted to be 10^4 dilution of overnight culture of the test organisms in Heart Infusion Broth (Difco). The results are shown in Table 6 along with those of kanamycin which was comparatively tested as a reference antibiotic.
# E. coli A20732 = test: MIC, two-fold agar dilution on Nutrient Agar; assay type: cell-based; settings: Escherichia coli, A20732
# Method: as §1
# E. coli A20895 = test: MIC, two-fold agar dilution on Nutrient Agar; assay type: cell-based; settings: Escherichia coli
# Method: as §1
# E. coli JR 35/C600 = test: MIC, two-fold agar dilution on Nutrient Agar; assay type: cell-based; settings: Escherichia coli, JR35/C600
# Method: as §1
# E. coli JR 66/W677 = test: MIC, two-fold agar dilution on Nutrient Agar; assay type: cell-based; settings: Escherichia coli
# Method: as §1
# E. coli ML 1630 = test: MIC, two-fold agar dilution on Nutrient Agar; assay type: cell-based; settings: Escherichia coli
# Method: as §1
# E. coli NIHJ = test: MIC, two-fold agar dilution on Nutrient Agar; assay type: cell-based; settings: Escherichia coli
# Method: as §1
# E. coli NR 79/W677 = test: MIC, two-fold agar dilution on Nutrient Agar; assay type: cell-based; settings: Escherichia coli
# Method: as §1
# E. coli PO 1495 = test: MIC, two-fold agar dilution on Nutrient Agar; assay type: cell-based; settings: Escherichia coli, PO1495, read-out: MIC
# Method: as §1
# E. coli R 5 = test: MIC, two-fold agar dilution on Nutrient Agar; assay type: cell-based; settings: Escherichia coli
# Method: as §1
# Ent. cloacae A20364 = test: MIC, two-fold agar dilution on Nutrient Agar; assay type: cell-based; settings: Enterobacter cloacae, A20364
# Method: as §1
# Ent. cloacae A21006 = test: MIC, two-fold agar dilution on Nutrient Agar; assay type: cell-based; settings: Enterobacter cloacae, A21006
# Method: as §1
# K. pneumoniae D11 = test: MIC, two-fold agar dilution on Nutrient Agar; assay type: cell-based; settings: Klebsiella pneumoniae
# Method: as §1
# [1] = test system: K. pneumoniae Type 22-3038; test: MIC, two-fold agar dilution on Nutrient Agar; assay type: cell-based; settings: Klebsiella pneumoniae, TYPE223038
# Method: as §1
# Pr. mirabilis A9554 = test: MIC, two-fold agar dilution on Nutrient Agar; assay type: cell-based; settings: Proteus mirabilis
# Method: as §1
# Pr. morganii A20031 = test: MIC, two-fold agar dilution on Nutrient Agar; assay type: cell-based; settings: Morganella morganii, A20031
# Method: as §1
# Pr. vulgaris A9436 = test: MIC, two-fold agar dilution on Nutrient Agar; assay type: cell-based; settings: Proteus vulgaris
# Method: as §1
# Prov. stuartii A20894 = test: MIC, two-fold agar dilution on Nutrient Agar; assay type: cell-based; settings: Providencia stuartii, A20894
# Method: as §1
# Ps. aeruginosa A20601 = test: MIC, two-fold agar dilution on Nutrient Agar; assay type: cell-based; settings: Pseudomonas aeruginosa
# Method: as §1
# Ps. aeruginosa A20653 = test: MIC, two-fold agar dilution on Nutrient Agar; assay type: cell-based; settings: Pseudomonas aeruginosa
# Method: as §1
# Ps. aeruginosa A20896 = test: MIC, two-fold agar dilution on Nutrient Agar; assay type: cell-based; settings: Pseudomonas aeruginosa
# Method: as §1
# Ps. aeruginosa A9930 = test: MIC, two-fold agar dilution on Nutrient Agar; assay type: cell-based; settings: Pseudomonas aeruginosa, A9930
# Method: as §1
# Ps. aeruginosa GN 315 = test: MIC, two-fold agar dilution on Nutrient Agar; assay type: cell-based; settings: Pseudomonas aeruginosa, GN315
# Method: as §1
# Ps. aeruginosa No. 130 = test: MIC, two-fold agar dilution on Nutrient Agar; assay type: cell-based; settings: Pseudomonas aeruginosa, NO.130
# Method: as §1
# Pseudomonas sp. A20621 = test: MIC, two-fold agar dilution on Nutrient Agar; assay type: cell-based; settings: Pseudomonas, SP.A20621
# Method: as §1
# S. aureus A20239 = test: MIC, two-fold agar dilution on Nutrient Agar; assay type: cell-based; settings: Staphylococcus aureus
# Method: as §1
# S. aureus D133 = test: MIC, two-fold agar dilution on Nutrient Agar; assay type: cell-based; settings: Staphylococcus aureus
# Method: as §1
# S. aureus D137 = test: MIC, two-fold agar dilution on Nutrient Agar; assay type: cell-based; settings: Staphylococcus aureus
# Method: as §1
# S. aureus D193 = test: MIC, two-fold agar dilution on Nutrient Agar; assay type: cell-based; settings: Staphylococcus aureus, D193
# Method: as §1
# S. aureus Smith = test: MIC, two-fold agar dilution on Nutrient Agar; assay type: cell-based; settings: Staphylococcus aureus
# Method: as §1
# Ser. marcescens A20019 = test: MIC, two-fold agar dilution on Nutrient Agar; assay type: cell-based; settings: Serratia marcescens, A20019
# Method: as §1
# Ser. marcescens A21247 = test: MIC, two-fold agar dilution on Nutrient Agar; assay type: cell-based; settings: Serratia marcescens
# Method: as §1
# [2] = test system: Gram-positive and Gram-negative bacteria; test: In vitro antibacterial activity (general); assay type: cell-based
# Method: as §1
# Solubility = assay type: physicochemical; settings: base
# Titration in water = assay type: physicochemical
structure (smiles),measurement,setting,value
CCCC(=O)NC1C(CO)OC(OC(C(O)CN)C(N)C(O)CO)C(O)C1O (stereo not drawn) [Bu-2183 A2],MIC,"E. coli A20107; A20107, Table 7, Ec-49, read-out: MIC",50 µg/mL
same,MIC,"E. coli A20732; Table 7, Ec-72, read-out: MIC",25 µg/mL
same,MIC,"E. coli A20895; A20895, Table 7, Ec-62, read-out: MIC",50 µg/mL
same,MIC,E. coli JR 35/C600,6.3 µg/mL
same,MIC,"E. coli JR 66/W677; JR66/W677, Table 7, Ec-53",25 µg/mL
same,MIC,"E. coli ML 1630; ML1630, Table 7, Ec-5, read-out: MIC",50 µg/mL
same,MIC,"E. coli NIHJ; Table 7, Ec-1, read-out: MIC",100 µg/mL
same,MIC,"E. coli NR 79/W677; NR79/W677, Table 7, Ec-9",25 µg/mL
same,MIC,"E. coli PO 1495; Table 7, Ec-2",> 100 µg/mL
same,MIC,"E. coli R 5; R5, Table 7, Ec-55",25 µg/mL
same,MIC,"Ent. cloacae A20364; Table 7, El-2, read-out: MIC",100 µg/mL
same,MIC,"Ent. cloacae A21006; Table 7, El-12, read-out: MIC",100 µg/mL
same,MIC,"K. pneumoniae D11; D11, Table 7, Kp-1, read-out: MIC",12.5 µg/mL
same,MIC,"[1]; Table 7, Kp-8 (printed Type 22-3028), read-out: MIC",100 µg/mL
same,MIC,"Pr. mirabilis A9554; A9554, Table 7, Pm-1, read-out: MIC",50 µg/mL
same,MIC,"Pr. morganii A20031; Table 7, Pg-2, read-out: MIC",50 µg/mL
same,MIC,"Pr. vulgaris A9436; A9436, Table 7, Pv-1, read-out: MIC",100 µg/mL
same,MIC,"Prov. stuartii A20894; Table 7, Ps-2, read-out: MIC",> 100 µg/mL
same,MIC,"Ps. aeruginosa A20601; A20601, Table 7, Pa-21, read-out: MIC",> 100 µg/mL
same,MIC,"Ps. aeruginosa A20653; A20653, Table 7, Pa-12, read-out: MIC",> 100 µg/mL
same,MIC,"Ps. aeruginosa A20896; A20896, Table 7, Pa-24, read-out: MIC",> 100 µg/mL
same,MIC,"Ps. aeruginosa A9930; Table 7, Pa-3, read-out: MIC",50 µg/mL
same,MIC,"Ps. aeruginosa GN 315; Table 7, Pa-27, read-out: MIC",100 µg/mL
same,MIC,"Ps. aeruginosa No. 130; Table 7, Pa-16, read-out: MIC",100 µg/mL
same,MIC,"Pseudomonas sp. A20621; Table 7, Px-10, read-out: MIC",> 100 µg/mL
same,MIC,"S. aureus A20239; A20239, Table 7, Sa-10, read-out: MIC",100 µg/mL
same,MIC,"S. aureus D133; D133, Table 7, Sa-4, read-out: MIC",100 µg/mL
same,MIC,"S. aureus D137; D137, Table 7, Sa-9, read-out: MIC",100 µg/mL
same,MIC,"S. aureus D193; Table 7, Sa-3, read-out: MIC",50 µg/mL
same,MIC,"S. aureus Smith; Table 7, Sa-2, read-out: MIC",25 µg/mL
same,MIC,"Ser. marcescens A20019; Table 7, Sm-1, read-out: MIC",> 100 µg/mL
same,MIC,"Ser. marcescens A21247; A21247, Table 7, Sm-16, read-out: MIC",> 100 µg/mL
same,bio-activity,[2],bio-active
same,activity of Bu-2183 A2 relative to Bu-2183 A and B,[2]; in vitro,more active than Bu-2183 B but less active than Bu-2183 A
same,antibacterial spectrum,[2]; in vitro,broad spectrum of antibacterial activity
same,solubility in methanol and ethanol,Solubility,slightly soluble
same,"solubility in n-butanol, acetone and other common organic solvents",Solubility,practically insoluble
same,solubility in water,Solubility,soluble
NC[C@H](O)[C@@H](O[C@H]1O[C@H](CO)[C@@H](O)[C@H](O)[C@H]1O)[C@H](N)[C@H](O)CO [Bu-2183 C],bio-activity,[2],bio-inactive; also recorded: bioinactive
NC[C@H](O)[C@@H](O[C@H]1O[C@H](CO)[C@@H](N)[C@H](O)[C@H]1O)[C@H](N)[C@H](O)CO [Bu-2183 D],bio-activity,[2],bio-inactive
same,bio-activity,[2]; listed as D,bio-inactive; also recorded: bioinactive
same,solubility in methanol and ethanol,Solubility,slightly soluble
same,"solubility in n-butanol, acetone and other common organic solvents",Solubility,practically insoluble
same,solubility in water,Solubility,soluble
same,pKa,Titration in water; read-out: pKa' (first value),6.95
same,pKa,Titration in water; read-out: pKa' (second value),9.68
"NC[C@H]1O[C@H](O[C@H]2[C@H](O)[C@@H](O[C@H]3O[C@H](CO)[C@@H](O)[C@H](N)[C@H]3O)[C@H](N)C[C@@H]2N)[C@H](O)[C@@H](O)[C@@H]1O [Kanamycin A, reference compound]",MIC,E. coli A20107; A20107,25 µg/mL
same,MIC,E. coli A20732,12.5 µg/mL
same,MIC,E. coli A20895; A20895,0.8 µg/mL
same,MIC,E. coli JR 35/C600,12.5 µg/mL
same,MIC,"E. coli JR 66/W677; JR66/W677, Table 6, Ec-53",25 µg/mL
same,MIC,E. coli ML 1630; ML1630,100 µg/mL
same,MIC,E. coli NIHJ,0.8 µg/mL
same,MIC,"E. coli NR 79/W677; NR79/W677, Table 6, Ec-9",25 µg/mL
same,MIC,"E. coli PO 1495; Table 6, Ec-2",0.4 µg/mL
same,MIC,"E. coli R 5; R5, Table 6, Ec-55",6.3 µg/mL
same,MIC,Ent. cloacae A20364,100 µg/mL
same,MIC,Ent. cloacae A21006,50 µg/mL
same,MIC,K. pneumoniae D11; D11,0.2 µg/mL
same,MIC,[1],100 µg/mL
same,MIC,Pr. mirabilis A9554; A9554,0.4 µg/mL
same,MIC,Pr. morganii A20031,0.8 µg/mL
same,MIC,Pr. vulgaris A9436; A9436,0.2 µg/mL
same,MIC,Prov. stuartii A20894,0.8 µg/mL
same,MIC,Ps. aeruginosa A20601; A20601,12.5 µg/mL
same,MIC,Ps. aeruginosa A20653; A20653,> 100 µg/mL
same,MIC,Ps. aeruginosa A20896; A20896,> 100 µg/mL
same,MIC,Ps. aeruginosa A9930,6.3 µg/mL
same,MIC,Ps. aeruginosa GN 315,100 µg/mL
same,MIC,Ps. aeruginosa No. 130,25 µg/mL
same,MIC,Pseudomonas sp. A20621,12.5 µg/mL
same,MIC,S. aureus A20239; A20239,25 µg/mL
same,MIC,S. aureus D133; D133,0.8 µg/mL
same,MIC,S. aureus D137; D137,1.6 µg/mL
same,MIC,S. aureus D193,0.4 µg/mL
same,MIC,S. aureus Smith,0.2 µg/mL
same,MIC,Ser. marcescens A20019,0.8 µg/mL
same,MIC,Ser. marcescens A21247; A21247,> 100 µg/mL
